Data from article PMC8086144, “A novel peptide antagonist of the human growth hormone receptor” (The Journal of Biological Chemistry, 2021).

Target: T1, hPRLR (Homo sapiens, UniProt P16471)
T1 construct: T84 cells express high levels of hPRLR relative to hGHR (>1300:1); host or cells: T84 (human colon cancer), MALME-3M (human melanoma)
T1 sequence (P16471 25-622): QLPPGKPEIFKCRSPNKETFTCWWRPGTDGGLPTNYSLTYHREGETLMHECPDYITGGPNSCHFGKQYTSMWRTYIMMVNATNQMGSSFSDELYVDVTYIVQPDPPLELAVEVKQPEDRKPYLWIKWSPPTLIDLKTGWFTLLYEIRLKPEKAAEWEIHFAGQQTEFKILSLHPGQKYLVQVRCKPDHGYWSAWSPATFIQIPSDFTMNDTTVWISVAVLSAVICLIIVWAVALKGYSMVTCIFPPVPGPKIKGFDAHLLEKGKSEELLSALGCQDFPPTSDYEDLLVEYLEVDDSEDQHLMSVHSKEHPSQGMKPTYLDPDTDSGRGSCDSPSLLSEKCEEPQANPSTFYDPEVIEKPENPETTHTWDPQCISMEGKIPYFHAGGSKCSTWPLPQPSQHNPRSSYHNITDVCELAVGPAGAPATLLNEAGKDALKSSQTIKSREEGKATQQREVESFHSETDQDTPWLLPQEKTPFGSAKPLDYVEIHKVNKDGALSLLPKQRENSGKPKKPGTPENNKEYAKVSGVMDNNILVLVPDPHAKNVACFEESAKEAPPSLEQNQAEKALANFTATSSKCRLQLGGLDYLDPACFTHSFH
Test: hPRL-induced pSTAT5 in T84 cells, Western blot
Format: cell-based
Conditions: 2.5 nM hPRL, 20 min, S1H concentration not given
Protocol: SK-MEL-28, MALME-3M, and T84 cells were grown and maintained in Eagle's Minimal Essential Medium. IM9 and L cells were grown in RPMI-1640 media and Dulbecco's modified Eagle's medium, respectively. All growth media was supplemented with 10% fetal bovine serum and 1× antibiotic-antimycotic […] solution. Cells were grown at 37 °C under a 5% CO2 atmosphere in a humidified incubator, and growth media was replaced every 48 h during incubation. No hGH was present in or added to the growth media unless specifically indicated. […]
Following treatment, the cells were harvested at the indicated time points, and the total protein was extracted. […] Sample protein concentration was quantified using a Bradford assay with bovine serum albumin as the protein standard. Absorbance at 595 nm was measured using a Spectramax 250 multimode plate reader (Molecular Devices) and processed using SoftmaxPro v4.7.1 software.
Cytosolic fractions from treated cells were thawed on ice, and 80 μg protein was loaded onto polyacrylamide gels for separation by SDS-PAGE. […] Chemiluminescence signals were detected using a GelDoc (BioRad) fluorescence imager. […]

inhibition of hPRL-induced pSTAT5: 13%
SMILES: CC[C@H](C)[C@H](NC(=O)[C@H](Cc1ccc(O)cc1)NC(C)=O)C(=O)N1CCC[C@H]1C(=O)N[C@@H](CCCCN)C(=O)N[C@@H](CCC(=O)O)C(=O)N[C@@H](CCC(N)=O)C(=O)N[C@@H](CCCCN)C(=O)N[C@@H](Cc1ccc(O)cc1)C(=O)N[C@@H](CO)C(=O)N[C@@H](Cc1ccccc1)C(=O)N[C@@H](CC(C)C)C(=O)N[C@@H](CCC(N)=O)C(=O)N[C@@H](CC(N)=O)C(=O)N1CCC[C@H]1C(=O)N[C@@H](CCC(N)=O)C(=O)N[C@H](C(N)=O)[C@@H](C)O [S1H]
